A value given as a limit tells only on which side of the number the result lay.

Here are results for 27 compounds from patent EP4385980A1, “INDAZOLES AS INHIBITORS OF NAV1.8” (Grünenthal GmbH, priority 2022, dated 2024).

For the assay, the target named is T1, human NaV1.8 (Homo sapiens, UniProt Q9Y5Y9).
T1 construct: expressed in transfected cells; host or cells: HEK
T1 sequence (Q9Y5Y9 whole entry): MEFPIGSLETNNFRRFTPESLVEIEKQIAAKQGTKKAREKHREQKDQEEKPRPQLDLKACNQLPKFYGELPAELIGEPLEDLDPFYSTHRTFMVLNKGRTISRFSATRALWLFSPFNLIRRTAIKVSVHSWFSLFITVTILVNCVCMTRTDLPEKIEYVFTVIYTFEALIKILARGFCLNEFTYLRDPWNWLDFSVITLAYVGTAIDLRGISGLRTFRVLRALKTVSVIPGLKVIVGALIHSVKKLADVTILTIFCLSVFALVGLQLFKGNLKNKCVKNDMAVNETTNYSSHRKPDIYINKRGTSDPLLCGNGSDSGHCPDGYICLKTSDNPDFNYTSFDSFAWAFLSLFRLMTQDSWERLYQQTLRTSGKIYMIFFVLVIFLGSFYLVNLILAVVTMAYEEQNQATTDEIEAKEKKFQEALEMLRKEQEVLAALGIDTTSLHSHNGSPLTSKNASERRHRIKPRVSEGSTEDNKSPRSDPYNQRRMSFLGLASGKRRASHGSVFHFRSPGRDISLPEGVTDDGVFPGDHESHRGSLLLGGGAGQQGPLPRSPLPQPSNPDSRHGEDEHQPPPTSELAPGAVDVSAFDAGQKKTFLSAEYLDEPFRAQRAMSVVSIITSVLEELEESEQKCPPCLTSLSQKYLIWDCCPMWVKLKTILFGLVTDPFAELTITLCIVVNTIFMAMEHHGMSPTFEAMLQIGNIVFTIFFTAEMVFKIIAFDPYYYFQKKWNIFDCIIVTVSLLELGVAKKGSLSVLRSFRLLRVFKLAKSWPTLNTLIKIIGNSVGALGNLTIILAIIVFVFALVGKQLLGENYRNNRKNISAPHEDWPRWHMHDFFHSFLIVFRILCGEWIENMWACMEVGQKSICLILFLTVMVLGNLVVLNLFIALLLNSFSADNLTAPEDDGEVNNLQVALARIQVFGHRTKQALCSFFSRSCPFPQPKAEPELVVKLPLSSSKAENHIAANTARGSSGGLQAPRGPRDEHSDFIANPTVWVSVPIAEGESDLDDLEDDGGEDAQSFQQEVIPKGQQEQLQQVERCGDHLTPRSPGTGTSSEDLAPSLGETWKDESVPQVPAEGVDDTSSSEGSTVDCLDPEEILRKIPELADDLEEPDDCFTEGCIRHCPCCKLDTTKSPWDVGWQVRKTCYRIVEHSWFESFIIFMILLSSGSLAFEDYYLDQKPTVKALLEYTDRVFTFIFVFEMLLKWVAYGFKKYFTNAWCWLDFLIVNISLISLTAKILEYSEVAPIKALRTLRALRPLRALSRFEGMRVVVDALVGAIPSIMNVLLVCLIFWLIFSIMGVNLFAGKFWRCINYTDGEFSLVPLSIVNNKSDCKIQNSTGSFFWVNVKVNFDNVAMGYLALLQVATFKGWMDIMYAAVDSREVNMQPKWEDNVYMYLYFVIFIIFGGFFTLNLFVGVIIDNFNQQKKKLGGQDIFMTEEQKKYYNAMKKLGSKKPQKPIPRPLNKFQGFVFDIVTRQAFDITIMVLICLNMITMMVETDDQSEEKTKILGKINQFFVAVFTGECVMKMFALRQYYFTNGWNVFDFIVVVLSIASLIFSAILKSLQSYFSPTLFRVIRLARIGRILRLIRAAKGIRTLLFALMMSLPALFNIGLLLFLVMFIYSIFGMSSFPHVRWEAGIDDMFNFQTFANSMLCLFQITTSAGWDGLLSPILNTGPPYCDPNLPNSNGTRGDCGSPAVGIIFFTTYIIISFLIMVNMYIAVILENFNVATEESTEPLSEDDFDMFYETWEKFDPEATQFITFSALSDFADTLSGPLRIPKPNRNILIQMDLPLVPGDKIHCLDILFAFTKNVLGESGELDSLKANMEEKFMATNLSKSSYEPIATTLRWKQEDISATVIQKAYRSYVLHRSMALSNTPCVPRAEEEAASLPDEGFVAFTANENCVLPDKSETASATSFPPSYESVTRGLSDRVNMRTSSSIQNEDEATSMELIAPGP
T1 sequence (Q9NY72 23-215 partner): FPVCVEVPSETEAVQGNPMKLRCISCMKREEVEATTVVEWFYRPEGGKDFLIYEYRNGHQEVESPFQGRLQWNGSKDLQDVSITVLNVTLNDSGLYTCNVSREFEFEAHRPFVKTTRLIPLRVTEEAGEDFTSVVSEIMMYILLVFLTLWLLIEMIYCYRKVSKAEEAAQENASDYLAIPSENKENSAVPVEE
The assay is described as follows: Electrophysiology: voltage-clamp recordings (whole-cell automated patch clamp, Qube384). The settings on record: HEK-NaV1.8 with b3 recombinant cell line, ambient room temperature, read-out: Potency category (human NaV1.8 IC50). It is filed as cell-based. As for the experimental part:
The following NaV1.8 recombinant cell line was used for recordings: HEK-NaV1.8 (NM_006514.1) with b3 (NM_018400.3).
Sodium currents were measured using the patch clamp technique in the whole-cell configuration using the Qube384 (Sophion A/S, Copenhagen, Denmark) automated voltage clamp platform. "Multi hole" plates were used for the cell line expressing NaV1.8 while "single hole" plates were used for the recombinant cell lines expressing the other subtypes. Appropriate filters (for minimum seal resistance and minimum current size) and series resistance compensation (for high quality sodium channel recordings) were applied. Data was collected at ambient room temperature.
The recording […] solution contained (in mM): NaCl 145 mM, KCl 4 mM, CaCl2 2 mM, MgCl2 1 mM, HEPES 10 mM, Glucose 10 mM, pH 7.4 (NaOH). The […] recording solution contained (in mM): CsF 120 mM, CsCl 20 mM, NaCl 10 mM, EGTA 10 mM, HEPES 10 mM, pH 7.2 (CsOH). Currents were recorded at 25 kHz sampling frequency and filtered at 5 kHz. Series resistance compensation was applied at 65%.
Vehicle (VEH) is the control condition where cells are exposed to 0.3 % DMSO without compound. All runs include VEH controls being exposed to the same voltage protocols to assess non-compound related phenomena such as run down and then used to isolate compound dependent effects on currents.
To check for state-dependence inhibition, the following voltage-sequence was applied every 20 seconds: From a resting membrane potential of-120 mV, the first test pulse (P1; 20 ms to -10 mV) was applied to check for channels in the Resting State followed by a brief recovery (20 ms to -120 mV), then holding the membrane voltage to V1/2 (4 seconds at voltage to obtain half the channel at Rest and half Inactivated) with a subsequent second test pulse (P2; 20 ms to -10 mV) to check for channels in the Inactivated State, followed by another brief recovery (20 ms to -120 mV) and a final third test pulse (P3; 20 ms to -10 mV) to check for recovered channels.
To check for frequency-dependent inhibition, a 10 Hz protocol and a 20 Hz protocol were applied; namely,
From a resting membrane potential of -120 mV, 40-pulses (10 ms to -10 mV) was applied at 10 Hz (at 100 ms between pulses) and then at 20 Hz (at 50 ms between pulses).
Each parameter was recorded (P1, P2, P3, P40 from 10Hz and P40 from 20Hz) during a control period (lasting ~ 5 minutes) when establishing the baseline and during compound period (lasting ~ 12 minutes) when test compound (or vehicle) was applied. For each parameter, the value at the end of the compound period was normalized to the vehicle baseline; as follows Normalized Inhibition (NormCPD) = (CPD Valueend CPD period)/(VEH Valueend Control Period) [formula]
To adjust for any variance in the Na^+ current signal during the compound period (owing to cumulative inactivation independent of compound or shifts in biophysics over time), a dedicated segment of the recording wells in each 384 plate were dedicated to having only vehicle exposure. These vehicle-only recordings were used to correct for any apparent "run-up" or "run-down" in the experiment. Normalized Inhibition (NormVEH) = (VEH Valueend CPD period)/(VEH Valueend Control Period) [formula]
The adjusted inhibition was calculated as follows: % Inhibitioncorrected = 100 × (NormCPD −NormVEH)/(100−NormVEH) [formula]
Percent inhibition was determined and IC50 values were calculated using a 4 parameter logistic model within XLFit Software (IDBS, Boston MA): % Inhibitioncorrected = A + ((B−A))/((1 + (((x)/(C)))^D) [formula] where A and B are the maximal and minimum inhibition respectively, C is the IC50 concentration and D is the (Hill) slope.
(In general: In patch-clamp work, channel activity is measured electrically.)
Regarding `CS(=O)(=O)c1cccc(NC(=O)c2c3cccc(C(F)(F)F)c3nn2CC2CCCCC2)c1` [SC-44, 2-(cyclohexylmethyl)-N-(3-methylsulfonylphenyl)-7-(trifluoromethyl)indazole-3-carboxamide], the half-inhibitory concentration (IC50) is no more than 100 nM.
`Cc1cccc2c(C(=O)Nc3cccc(S(C)(=O)=O)c3)n(CC3CCCCC3)nc12` [SC-45, 2-(cyclohexylmethyl)-7-methyl-N-(3-methylsulfonylphenyl)indazole-3-carboxamide]: the concentration for half-maximal inhibition (IC50) is no more than 100 nM.
The result for `Cc1ccc2nn(CC3CCCCC3)c(C(=O)Nc3cccc(S(C)(=O)=O)c3)c2c1` [SC-46, 2-(cyclohexylmethyl)-5-methyl-N-(3-methylsulfonylphenyl)indazole-3-carboxamide] reads 100 to 1000 nM; that for `CS(=O)(=O)c1cccc(NC(=O)c2c3c(F)cccc3nn2CC2CCCCC2)c1` [SC-47, 2-(cyclohexylmethyl)-4-fluoro-N-(3-methylsulfonylphenyl)indazole-3-carboxamide], no more than 100 nM; that for `Cc1ccc2nn(CC3CCCCC3)c(C(=O)Nc3cc[nH]c(=O)c3)c2c1` [SC-48, 2-(cyclohexylmethyl)-5-methyl-N-(2-oxo-1,2-dihydropyridin-4-yl)-2H-indazole-3-carboxamide], 1000 to 10000 nM.
For `O=C(Nc1ccnc(O)c1)c1c2c(F)cccc2nn1CC1CCCCC1` [SC-49, 2-(cyclohexylmethyl)-4-fluoro-N-(2-hydroxypyridin-4-yl)indazole-3-carboxamide], the 50% inhibitory concentration (IC50) is 100 to 1000 nM.
On to `O=C(Nc1ccnc(O)c1)c1c2ccccc2nn1CC1CCOC1` (stereo not drawn) [SC-50, N-(2-hydroxypyridin-4-yl)-2-(oxolan-3-ylmethyl)indazole-3-carboxamide], for which the concentration for half-maximal inhibition (IC50) is 1000 to 10000 nM.
Take `O=C(Nc1ccnc(O)c1)c1c2ccccc2nn1CC1CCCCO1` (stereo not drawn) [SC-53, N-(2-hydroxypyridin-4-yl)-2-(oxan-2-ylmethyl)indazole-3-carboxamide]: the half-maximal inhibitory concentration (IC50) lay within 1000 to 10000 nM.
Consider `CS(=O)(=O)c1cccc(NC(=O)c2c3ccccc3nn2CC2CCOC2)c1` (stereo not drawn) [SC-56, N-(3-methylsulfonylphenyl)-2-(oxolan-3-ylmethyl)indazole-3-carboxamide], for which the IC50 was 1000 to 10000 nM.
As for `CS(=O)(=O)c1cccc(NC(=O)c2c3ccccc3nn2CC2CCCCO2)c1` (stereo not drawn) [SC-58, N-(3-methylsulfonylphenyl)-2-(oxan-2-ylmethyl)indazole-3-carboxamide], the IC50 lay in the range of 100 to 1000 nM.
For `CS(=O)(=O)c1cccc(NC(=O)c2c3ccc(F)cc3nn2CC2CCOCC2)c1` [SC-60, 6-fluoro-N-(3-methylsulfonylphenyl)-2-(oxan-4-ylmethyl)indazole-3-carboxamide], the IC50 is 100 to 1000 nM.
In the case of `CS(=O)(=O)c1cccc(NC(=O)c2c3ccc(F)cc3nn2CCC2CCCC2)c1` [SC-61, 2-(2-cyclopentylethyl)-6-fluoro-N-(3-methylsulfonylphenyl)indazole-3-carboxamide], the IC50 was in the range of 100 to 1000 nM.
The figure for `CS(=O)(=O)c1cccc(NC(=O)c2c3ccc(F)cc3nn2CC2CC(F)(F)C2)c1` [SC-62, 2-[(3,3-difluorocyclobutyl)methyl]-6-fluoro-N-(3-methylsulfonylphenyl)indazole-3-carboxamide] is 100 to 1000 nM.
The figure for `CS(=O)(=O)c1cccc(NC(=O)c2c3ccccc3nn2CC2CCCC2)c1` [SC-67, 2-(cyclopentylmethyl)-7V-(3-methylsulfonylphenyl)indazole-3-carboxamide] is 100 to 1000 nM; for `CC1(C)CC(Cn2nc3cc(F)ccc3c2C(=O)Nc2cccc(S(C)(=O)=O)c2)C1` [SC-68, 2-[(3,3-dimethylcyclobutyl)methyl]-6-fluoro-N-(3-methylsulfonylphenyl)indazole-3-carboxamide] it is no more than 100 nM; for `CS(=O)(=O)c1cccc(NC(=O)c2c3ccc(F)cc3nn2CC2CCC3(CC2)CC3)c1` [SC-70, 6-fluoro-N-(3-methylsulfonylphenyl)-2-(spiro[2.5]octan-6-ylmethyl)indazole-3-carboxamide] it is 1000 to 10000 nM.
`O=C(Nc1ccnc(O)c1)c1c2ccc(F)cc2nn1CC1CCCCO1` (stereo not drawn) [SC-71, 6-fluoro-N-(2-hydroxypyridin-4-yl)-2-[[oxan-2-yl]methyl]indazole-3-carboxamide]: the IC50 is 1000 to 10000 nM.
As for `O=C(Nc1ccnc(O)c1)c1c2ccccc2nn1CC1CCCC1` [SC-73, 2-(cyclopentylmethyl)-N-(2-hydroxypyridin-4-yl)indazole-3-carboxamide], the half-inhibitory concentration (IC50) fell in the range of 100 to 1000 nM.
The result for `NC(=O)c1cccc(NC(=O)c2c3ccc(F)cc3nn2CC2CCC(F)(F)CC2)c1` [SC-76, N-(3-Carbamoylphenyl)-2-[(4,4-difluorocyclohexyl)methyl]-6-fluoro-2H-indazole-3-carboxamide] reads 100 to 1000 nM; that for `CS(=O)(=O)c1cc(NC(=O)c2c3ccccc3nn2CC2CCCCC2)ccc1F` [SC-77, 2-(cyclohexylmethyl)-N-(4-fluoro-3-methylsulfonylphenyl)indazole-3-carboxamide], no more than 100 nM.
Turning to `Cc1cccc2c(C(=O)Nc3cccc(S(N)(=O)=O)c3)n(CC3CCC(F)(F)C3)nc12` (stereo not drawn) [SC-80, 2-((3,3-difluorocyclopentyl)methyl)-7-methyl-N-(3-sulfamoylphenyl)-2H-indazole-3-carboxamide], the IC50 was no more than 100 nM.
With `NS(=O)(=O)c1cccc(NC(=O)c2c3cccc(F)c3nn2CC2CCCC(F)(F)C2)c1` (stereo not drawn) [SC-81, 2-((3,3-difluorocyclohexyl)methyl)-7-fluoro-N-(3-sulfamoylphenyl)-2H-indazole-3-carboxamide], the IC50 was no more than 100 nM.
Take `Cc1cccc2nn(CC3CCCCC3)c(C(=O)Nc3cccc(S(C)(=O)=O)c3)c12` [SC-83, 2-(cyclohexylmethyl)-4-methyl-N-(3-(methylsulfonyl)phenyl)-2H-indazole-3-carboxamide]: the half-inhibitory concentration (IC50) was no more than 100 nM.
The figure for `NS(=O)(=O)c1cccc(NC(=O)c2c3cccc(C4CC4)c3nn2CC2CCOCC2)c1` [SC-85, 7-cyclopropyl-N-(3-sulfamoylphenyl)-2-((tetrahydro-2H-pyran-4-yl)methyl)-2H-indazole-3-carboxamide] is no more than 100 nM; for `NC(=O)c1cc(NC(=O)c2c3ccc(F)cc3nn2CC2CCCCC2)ccn1` [SC-86, N-(2-carbamoylpyridin-4-yl)-2-(cyclohexylmethyl)-6-fluoro-2H-indazole-3-carboxamide] it is no more than 100 nM.
Take `NS(=O)(=O)c1cc(NC(=O)c2c3ccc(F)cc3nn2CC2CCCCC2)ccn1` [SC-87, 2-(cyclohexylmethyl)-6-fluoro-N-(2-sulfamoylpyridin-4-yl)-2H-indazole-3-carboxamide]: the IC50 is no more than 100 nM.
Take `NS(=O)(=O)c1cc(NC(=O)c2c3cccc(C(F)F)c3nn2C[C@H]2CCCCO2)ccn1` [SC-89b]: the IC50 was no more than 100 nM.

The IC50 is the concentration that gives 50% inhibition.
